What follows are molecules tested against human PDE1B enzyme (Homo sapiens (Human), UniProt Q01064) (assay: IMAP TR-FRET PDE1B enzymatic assay). Settings: negative log of half-maximal molar inhibitory concentration; 200 nM FAM-cAMP; values given as bins.
Assay type: biochemical
Outline: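 Full-length GST-tagged human PDE1B (250 pg/well) in IMAP BSA buffer with 10 U/ml calmodulin and 2.5 mM CaCl2; compound pre-incubated 5 min at room temperature, then 200 nM (final) FAM-cAMP for 30 min. IMAP binding reagent/Tb added, 1 h; TR-FRET 520/490 ratio read. IC50 from sigmoidal dose-response fit.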

Q: For `Cc1oc2ncnc(NC3(C)CC3)c2c1C(=O)N1CCC(c2cc(C(F)(F)F)ccn2)C1` (stereo not drawn) [Example 802, 6-Methyl-N-(1-methylcyclopropyl)-5-f{3-[4-(trifluoromethyl)pyridin-2-yl]pyrrolidine-1-carbonyl}furo[2,3-d]pyrimidin-4-amine], which “PDE1b (pIC50)” value is on record?
A: >8

Q: `Cc1oc2ncnc(NC3(C)CC3)c2c1C(=O)N1CCN(c2ccc(F)cn2)CC1` [Example 43, 5-[4-(5-Fluoropyridin-2-yl)piperazine-1-carbonyl]-6-methyl-N-(1-methylcyclopropyl)furo[2,3-d]pyrimidin-4-amine] was tested. Which “PDE1b (pIC50)” value did it give?
A: >8

Q: Which “PDE1b (pIC50)” value does the source give for `Cc1oc2ncnc(NC3(C)CC3)c2c1C(=O)N1CCC(c2ccc(C#N)cc2)CC1` [Example 385, 4-(1-{6-Methyl-4-[(1-methylcyclopropyl)amino]furo[2,3-d]pyrimidine-5-carbonyl}piperidin-4-yl)benzonitrile] here?
A: >8

Q: Which “PDE1b (pIC50)” value does the source give for `COc1ccc(C2CCN(C(=O)c3c(C)oc4ncnc(NC5(C)CC5)c34)CC2)nc1` [Example 366, 5-[4-(5-Methoxypyridin-2-yl)piperidine-1-carbonyl]-6-methyl-N-(1-methylcyclopropyl)furo[2,3-d]pyrimidin-4-amine] here?
A: >8

Q: How did the “PDE1b (pIC50)” value turn out when `Cc1oc2ncnc(NC3(C)CC3)c2c1C(=O)N1CC=C(c2nccc(C#N)n2)CC1` [Example 775, 2-(1-{6-Methyl-4-[(1-methylcyclopropyl)amino]furo[2,3-d]pyrimidine-5-carbonyl}-1,2,3,6-tetrahydropyridin-4-yl)pyrimidine-4-carbonitrile] was run?
A: >8

Same assay, conditions: negative log of half-maximal molar inhibitory concentration; 200 nM FAM-cAMP; values given as bins; read-out: PDE1b (pIC50) (converted)

Q: How did the IC50 turn out when `Cc1oc2ncnc(NC3(C)CC3)c2c1C(=O)N1CCc2c(ncnc2OC(C)C)C1` [Example 465, 6-Methyl-N-(1-methylcyclopropyl)-5-[4-(propan-2-yloxy)-5H,6H,7H,8H-pyrido[3,4-d]pyrimidine-7-carbonyl]furo[2,3-d]pyrimidin-4-amine] was run?
A: 10 to 100 nM

Q: For `Cc1oc2ncnc(NC3(C)CC3)c2c1C(=O)NCc1ccncc1F` [Example 163, N-[(3-Fluoropyridin-4-yl)methyl]-6-methyl-4-[(1-methylcyclopropyl)amino]furo[2,3-d]pyrimidine-5-carboxamide], which IC50 is on record?
A: 10 to 100 nM

Q: Which IC50 does the source give for `Cc1oc2ncnc(NC3(C)CC3)c2c1C(=O)NCc1ccc(OC(F)(F)F)cc1F` [Example 723, N-{[2-Fluoro-4-(trifluoromethoxy)phenyl]methyl}-6-methyl-4-[(1-methylcyclopropyl)amino]furo[2,3-d]pyrimidine-5-carboxamide] here?
A: 10 to 100 nM

Q: `Cc1oc2ncnc(NC3(C)CC3)c2c1C(=O)N1CCCC2(C1)OCc1ccccc12` (stereo not drawn) [Example 379, 6-Methyl-N-(1-methylcyclopropyl)-5-({3H-spiro[2-benzofuran-1,3′-piperidine]-1′-yl}carbonyl)furo[2,3-d]pyrimidin-4-amine] was tested. Which IC50 did it give?
A: 100 to 1000 nM

Q: How did the IC50 turn out when `Cc1oc2ncnc(NC3(C)CC3)c2c1C(=O)NCc1ccnc(Cl)n1` [Example 677, N-[(2-Chloropyrimidin-4-yl)methyl]-6-methyl-4-[(1-methylcyclopropyl)amino]furo[2,3-d]pyrimidine-5-carboxamide] was run?
A: 10 to 100 nM

Q: `Cc1oc2ncnc(NC3(C)CC3)c2c1C(=O)NC(C)c1ccc(F)cc1` (stereo in doubt) [Example 484, N-[(1R)-1-(4-Fluorophenyl)ethyl]-6-methyl-4-[(1-methylcyclopropyl)amino]furo[2,3-d]pyrimidine-5-carboxamide] was tested. Which IC50 did it give?
A: 10 to 100 nM

Q: How did the IC50 turn out when `Cc1oc2ncnc(NC3(C)CC3)c2c1C(=O)NCc1nc2cc(F)ccc2[nH]1` [Example 729, N-[(5-Fluoro-1H-1,3-benzodiazol-2-yl)methyl]-6-methyl-4-[(1-methylcyclopropyl)amino]furo[2,3-d]pyrimidine-5-carboxamide] was run?
A: 10 to 100 nM

Q: How did the IC50 turn out when `Cc1oc2ncnc(NC3(C)CC3)c2c1C(=O)NCC1CCCCC1` [Example 192, N-(Cyclohexylmethyl)-6-methyl-4-[(1-methylcyclopropyl)amino]furo[2,3-d]pyrimidine-5-carboxamide] was run?
A: 10 to 100 nM

Q: `Cc1oc2ncnc(NC3(C)CC3)c2c1C(=O)Nc1ccc2scnc2c1` [Example 263, N-(1,3-Benzothiazol-5-yl)-6-methyl-4-[(1-methylcyclopropyl)amino]furo[2,3-d]pyrimidine-5-carboxamide] was tested. Which IC50 did it give?
A: 10 to 100 nM

Q: With `Cc1oc2ncnc(NC3(C)CC3)c2c1C(=O)N1CCC(c2cnn(C)c2)CC1` [Example 782, 6-Methyl-5-[4-(1-methyl-1H-pyrazol-4-yl)piperidine-1-carbonyl]-N-(1-methylcyclopropyl)furo[2,3-d]pyrimidin-4-amine] as the molecule, how does the IC50 read?
A: 10 to 100 nM

Q: For `Cc1oc2ncnc(NC3(C)CC3)c2c1C(=O)N1CCc2c(F)ncnc2C1` [Example 5, (4-Fluoro-5,8-dihydropyrido[3,4-d]pyrimidin-7(6H)-yl)(6-methyl-4-((1-methylcyclopropyl)amino)furo[2,3-d]pyrimidin-5-yl)methanone], which IC50 is on record?
A: 10 to 100 nM

Q: For `COc1nc(C)ncc1CNC(=O)c1c(C)oc2ncnc(NC3(C)CC3)c12` [Example 676, N-[(4-Methoxy-2-methylpyrimidin-5-yl)methyl]-6-methyl-4-[(1-methylcyclopropyl)amino]furo[2,3-d]pyrimidine-5-carboxamide], which IC50 is on record?
A: 10 to 100 nM

Q: Which IC50 does the source give for `Cc1nc(NC(=O)c2c(C)oc3ncnc(NC4(C)CC4)c23)ccc1F` [Example 436, N-(5-Fluoro-6-methylpyridin-2-yl)-6-methyl-4-[(1-methylcyclopropyl)amino]furo[2,3-d]pyrimidine-5-carboxamide] here?
A: 10 to 100 nM

Q: For `Cc1oc2ncnc(NC3(C)CC3)c2c1C(=O)N1CCCC2(C1)C(=O)N(C)c1ccccc12` (stereo not drawn) [Example 376, 1-Methyl-1′-{6-methyl-4-[(1-methylcyclopropyl)amino]furo[2,3-d]pyrimidine-5-carbonyl}-1,2-dihydrospiro[indole-3,3′-piperidine]-2-one], which IC50 is on record?
A: 100 to 1000 nM

Q: Which IC50 does the source give for `Cc1oc2ncnc(NC3(C)CC3)c2c1C(=O)N1CCN(c2nc(Cl)c(Cl)c(Cl)c2Cl)CC1` [Example 308, 6-Methyl-N-(1-methylcyclopropyl)-5-[4-(tetrachloropyridin-2-yl)piperazine-1-carbonyl]furo[2,3-d]pyrimidin-4-amine] here?
A: 10 to 100 nM

Q: Which IC50 does the source give for `Cc1oc2ncnc(NC3(C)CC3)c2c1C(=O)NC(C)c1ncc(F)cn1` (stereo not drawn) [Example 302, N-[1-(5-Fluoropyrimidin-2-yl)ethyl]-6-methyl-4-[(1-methylcyclopropyl)amino]furo[2,3-d]pyrimidine-5-carboxamide] here?
A: 10 to 100 nM

Q: How did the IC50 turn out when `COCc1nc2c(c(OCF)n1)CCN(C(=O)c1c(C)oc3ncnc(NC4(C)CC4)c13)C2` [Example 773, 5-[4-(Fluoromethoxy)-2-(methoxymethyl)-5H,6H,7H,8H-pyrido[3,4-d]pyrimidine-7-carbonyl]-6-methyl-N-(1-methylcyclopropyl)furo[2,3-d]pyrimidin-4-amine] was run?
A: 10 to 100 nM

Q: For `COc1ccc(-c2cnn(C(=O)c3c(C)oc4ncnc(NC5(C)CC5)c34)c2)cc1` [Example 406, 5-[4-(4-Methoxyphenyl)-1H-pyrazole-1-carbonyl]-6-methyl-N-(1-methylcyclopropyl)furo[2,3-d]pyrimidin-4-amine], which IC50 is on record?
A: 100 to 1000 nM

Q: Which IC50 does the source give for `Cc1oc2ncnc(NC3(C)CC3)c2c1C(=O)Nc1cnc(N2C[C@@H](C)O[C@@H](C)C2)nc1` [Example 759, N-{2-[(2R,6S)-2,6-Dimethylmorpholin-4-yl]pyrimidin-5-yl}-6-methyl-4-[(1-methylcyclopropyl)amino]furo[2,3-d]pyrimidine-5-carboxamide] here?
A: 100 to 1000 nM

Source: patent US20250145633A1, “SUBSTITUTED FURANOPYRIMIDINE COMPOUNDS AS PDE1 INHIBITORS” (Dart NeuroScience, LLC, priority 2017, published 2025)
